Our source for the IC50 values is ChEMBL document CHEMBL5096141, “Protease targeted COVID-19 drug discovery and its challenges: Insight into viral main protease (Mpro) and papain-like protease (PLpro) inhibitors” (Bioorg Med Chem, 2021).

The target in assay [1] is T1, Replicase polyprotein 1ab (Severe acute respiratory syndrome coronavirus 2, UniProt P0DTD1). Put plainly: Inhibition of SARS-CoV-2 MPro.
The nature of assay [2]: Inhibition of SARS-CoV PLpro expressed in Escherichia coli. More on the design: species or system Severe acute respiratory syndrome-related coronavirus.
The target in assay [3] is T1, Replicase polyprotein 1ab. Put plainly: Inhibition of SARS-CoV-2 PLpro expressed in Escherichia coli.
For assay [4], the target named is T1, Replicase polyprotein 1ab. The assay can be described thus: Inhibition of recombinant SARS-CoV-2 MPro incubated for 10 mins in presence of fluorogenic substrate.
The nature of assay [5]: Inhibition of recombinant SARS-CoV MPro. More on the design: species or system Severe acute respiratory syndrome-related coronavirus.
Assay [6] can be described thus: Inhibition of recombinant MERS-CoV MPro. More on the design: species or system Middle East respiratory syndrome-related coronavirus.

As for `Cc1cccc(C)c1OCC(=O)N[C@@H](Cc1ccccc1)[C@@H](O)C[C@H](Cc1ccccc1)NC(=O)[C@H](C(C)C)N1CCCNC1=O` [LOPINAVIR], in assay [1], the IC50 was greater than 20000 nM.
The same measure, in the same setting: the value for `CN(C)C(=O)COC(=O)Cc1ccc(OC(=O)c2ccc(NC(=N)N)cc2)cc1` [CAMOSTAT] was greater than 20000 nM.
Consider `COc1ccc(CNC(=O)C2CCN(Cc3cccc4ccccc34)CC2)cc1`, for which the midpoint of inhibition in assay [2], the IC50, lay at 59000 nM.
Still for that read-out and setting: the value for `Cc1ccc(N)cc1C(=O)N[C@@H](C)c1cccc2ccccc12` was 600 nM.
Turning to `CC(=O)Nc1ccc(C)c(C(=O)N[C@@H](C)c2cccc3ccccc23)c1`, the IC50 in assay [2] turned out to be 2600 nM; in assay [3], 5000 nM.
On to `Cc1ccccc1C(=O)NC(C)c1ccc2ccccc2c1` (stereo unspecified), for which inhibition in assay [2] was half-maximal at 20000 nM (IC50).
Regarding `O=C[C@@H](C[C@@H]1CCNC1=O)NC(=O)[C@@H](Cc1cccc(F)c1)NC(=O)c1cc2ccccc2[nH]1`, the IC50 in assay [1] and in assay [4] was 40 nM in each case.
`CC(C)(C)OC(=O)Nc1cccn([C@H](CC2CC2)C(=O)N[C@H](C[C@@H]2CCNC2=O)C(=O)C(=O)NCc2ccccc2)c1=O`: the IC50 in assay [5] was 900 nM; in assay [6], 580 nM.

For orientation: IC50 means the midpoint of a concentration-inhibition curve.
